# According to ChEMBL document CHEMBL3393030, “Synthesis and properties of vitamin E analog-conjugated neomycin for delivery of RNAi drugs to liver cells” (Bioorg Med Chem Lett, 2015):
# Legend:
# [1] = Binding affinity to self-complementary RNA-12mer duplex (5'-rCGCGAAUUCGCG-3')2 (unknown origin) assessed as melting temperature by […] assay (reference value: 61 degC); conditions: Homo sapiens
# [2] = Drug uptake in mouse HePa1-6 cells assessed as red signal with Cy3 conjugate compound; format: ADME, cell-based
# RH7777 = test: Induction of RNAi activity in rat McA-RH7777 cells by LDLR assay; format: cell-based
SMILES,Tm [1],Drug uptake [2],Activity (RH7777)
CCCCCCCC/C=C/CCCCCCCC(=O)Oc1c(C)c(C)c2c(c1C)CC[C@@](C)(CCCCCCCCCOCc1cn(CCCCCCCCCCCCCCCCSC[C@H]3O[C@@H](O[C@@H]4[C@@H](O)[C@H](N)C[C@H](N)[C@H]4O[C@H]4O[C@H](CN)[C@@H](O)[C@H](O)[C@H]4N)[C@H](O)[C@@H]3O[C@H]3O[C@@H](CN)[C@@H](O)[C@H](O)[C@H]3N)nn1)O2,66.8 °C,Active,Toxic
CCCCCCCCCCCCCCCCCC(=O)Oc1c(C)c(C)c2c(c1C)CC[C@@](C)(CCCCCCCCCOCc1cn(CCCCCCCCCCCCCCCCSC[C@H]3O[C@@H](O[C@@H]4[C@@H](O)[C@H](N)C[C@H](N)[C@H]4O[C@H]4O[C@H](CN)[C@@H](O)[C@H](O)[C@H]4N)[C@H](O)[C@@H]3O[C@H]3O[C@@H](CN)[C@@H](O)[C@H](O)[C@H]3N)nn1)O2,65.6 °C,–,–
NC[C@@H]1O[C@H](O[C@H]2[C@@H](O)[C@H](O[C@@H]3[C@@H](O)[C@H](N)C[C@H](N)[C@H]3O[C@H]3O[C@H](CN)[C@@H](O)[C@H](O)[C@H]3N)O[C@@H]2CO)[C@H](N)[C@@H](O)[C@@H]1O,64.2 °C,–,–
CCCCCCCCCCCCCCCCOC(COC[C@]1(C)CCc2c(C)c(O)c(C)c(C)c2O1)OCc1cn(CCCCCCCCCCCCCCCCSC[C@H]2O[C@@H](O[C@@H]3[C@@H](O)[C@H](N)C[C@H](N)[C@H]3O[C@H]3O[C@H](CN)[C@@H](O)[C@H](O)[C@H]3N)[C@H](O)[C@@H]2O[C@H]2O[C@@H](CN)[C@@H](O)[C@H](O)[C@H]2N)nn1 (stereo partly drawn),72.8 °C,Active,Toxic
